These results are taken from PubChem BioAssay AID328 (DTP/NCI, 2004).

The subject of the assay is BDF1 mice, P388 leukemia ip, median survival T/C. In words: NCI In Vivo Anticancer Drug Screen. Data for tumor model P388 Leukemia (intraperitoneal) in B6D2F1 (BDF1) mice. The following applies: endpoint: median survival time, higher = longer survival. Put shortly: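 Transplantable tumour in mice; compound vs vehicle dosing; survival scored; ratio of treated to control reported.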

Setting [1] is: dose: 25.0 mg/kg/injection, schedule: Q01DX009 (ip), vehicle: saline with Tween-80.
[2] abbreviates: dose: 50.0 mg/kg/injection, schedule: Q01DX009 (ip), vehicle: saline with Tween-80.
Where [3] appears, read: dose: 100.0 mg/kg/injection, schedule: Q01DX001 (ip), vehicle: saline with Tween-80.
Setting [4] is: dose: 100.0 mg/kg/injection, schedule: Q04DX003 (sc), vehicle: olive oil, sesame oil, peanut oil.
[5] abbreviates: dose: 200.0 mg/kg/injection, schedule: Q04DX003 (sc), vehicle: olive oil, sesame oil, peanut oil.
Where [6] appears, read: dose: 400.0 mg/kg/injection, schedule: Q04DX003 (sc), vehicle: olive oil, sesame oil, peanut oil.
[7] abbreviates: dose: 100.0 mg/kg/injection, schedule: Q04DX003 (ip), vehicle: saline with Tween-80.
The mark [8] stands for this setting: dose: 200.0 mg/kg/injection, schedule: Q04DX003 (ip), vehicle: saline with Tween-80.
Where [9] appears, read: dose: 25.0 mg/kg/injection, schedule: Q04DX003 (ip), vehicle: saline with Tween-80.
[10] abbreviates: dose: 50.0 mg/kg/injection, schedule: Q04DX003 (ip), vehicle: saline with Tween-80.
Where [11] appears, read: dose: 100.0 mg/kg/injection, schedule: Q01DX009 (ip), vehicle: saline with Tween-80.
[12] abbreviates: dose: 100.0 mg/kg/injection, schedule: Q01DX009 (ip), vehicle: saline.
Where [13] appears, read: dose: 200.0 mg/kg/injection, schedule: Q01DX009 (ip), vehicle: saline with Tween-80.

“And” between values parts separate entries of the source, which are not always exact repeats. Equal entries are not always repeated. Inconclusive results and toxic doses are left out.

As for `CCCCCCCCC(=O)Nc1ncnc2n[nH]nc12`, the T/C (dose: 6.25 mg/kg/injection, schedule: Q01DX009 (ip), vehicle: saline with Tween-80) is 87 % of control; the T/C (dose: 12.5 mg/kg/injection, schedule: Q01DX009 (ip), vehicle: saline with Tween-80) was 90 % of control; the T/C under setting [1] is 102 % of control; the T/C under setting [2] is 109 % of control.

On to `CCCCCCCCCC(=O)NN1CCOCC1`, for which the T/C runs as follows: under setting [3], 104 % of control; (dose: 200.0 mg/kg/injection, schedule: Q01DX001 (ip), vehicle: saline with Tween-80) 120 % of control; (dose: 400.0 mg/kg/injection, schedule: Q01DX001 (ip), vehicle: saline with Tween-80) 104 % of control.

As for `CC1CC=C(C2CC(C)CC(N(C)C)C2=N)CC1` (stereo unspecified), the T/C was 104 % of control (dose: 12.5 mg/kg/injection, schedule: Q01DX009 (sc), vehicle: olive oil, sesame oil, peanut oil); 109 % of control (dose: 25.0 mg/kg/injection, schedule: Q01DX009 (sc), vehicle: olive oil, sesame oil, peanut oil); 113 % of control (dose: 50.0 mg/kg/injection, schedule: Q01DX009 (sc), vehicle: olive oil, sesame oil, peanut oil); 91 % of control under setting [4]; 104 % of control under setting [5]; 116 % of control under setting [6].

Regarding `Cc1ccc(C(=O)/C=C/N2CCN(c3ccccc3)CC2)c(C)c1`, the T/C under setting [7] is 100 % of control; the T/C under setting [8] was 100 % of control; the T/C (dose: 400.0 mg/kg/injection, schedule: Q04DX003 (ip), vehicle: saline with Tween-80) is 90 % of control.

As to `CCCCCCCCCCCCOB(OCCCCCCCCCCCC)OCCCCCCCCCCCC`, the T/C reads like this: under setting [1], 100 % of control; under setting [9], 91 % of control; under setting [2], 108 % of control; under setting [10], 95 % of control; under setting [11], 100 % of control; under setting [7], 116 % of control.

Turning to `O=C(OC(=O)c1ccc([N+](=O)[O-])cc1)c1ccc([N+](=O)[O-])cc1`, the T/C by setting is: under setting [4], 110 % of control; under setting [5], 105 % of control; under setting [6], 105 % of control.

With `COC1CCC2=C(C1)C(=O)CC1c3ccccc3CN21` (stereo unspecified), the T/C was 100 % of control under setting [9] and 104 % of control under setting [10].

For `NC(=O)NO`, the T/C was 100 % of control (dose: 31.3 mg/kg/injection, schedule: Q01DX010 (ip), vehicle: saline); 100 % of control (dose: 62.5 mg/kg/injection, schedule: Q01DX010 (ip), vehicle: saline); 100 % of control (dose: 125.0 mg/kg/injection, schedule: Q01DX010 (ip), vehicle: saline); 100 % of control (dose: 250.0 mg/kg/injection, schedule: Q01DX010 (ip), vehicle: saline); 150 % of control (dose: 500.0 mg/kg/injection, schedule: Q01DX010 (ip), vehicle: saline); 100 % of control (dose: 750.0 mg/kg/injection, schedule: Q01DX009 (ip), vehicle: saline).

Take `COc1ccc2c(c1)CCC1C2=CC(=O)/C1=C\[O-].COc1ccc2c(c1)CCC1C2=CC(=O)/C1=C\[O-].[Cu+2]` (stereo unspecified): the T/C by setting is: (dose: 12.5 mg/kg/injection, schedule: Q04DX003 (ip), vehicle: saline with Tween-80) 113 % of control; under setting [9], 109 % of control.

For the compound `Cc1cccc(NC(=O)N(CCCl)N=O)c1`, the T/C was 157 % of control (dose: 0.4 mg/kg/injection, schedule: Q01DX009 (ip), vehicle: saline); 100 % of control (dose: 38.0 micrograms/kg/injection, schedule: Q04DX003 (ip), vehicle: saline); 109 % of control (dose: 75.0 micrograms/kg/injection, schedule: Q04DX003 (ip), vehicle: saline); 104 % of control (dose: 150.0 micrograms/kg/injection, schedule: Q04DX003 (ip), vehicle: saline); 109 % of control (dose: 300.0 micrograms/kg/injection, schedule: Q04DX003 (ip), vehicle: saline).

As for `CCCC1CC[N-]CC1.CCCC1CC[N-]CC1.[Cl][Pt+2][Cl]`, the T/C is 122 % of control under setting [1]; 96 % of control (dose: 44.0 mg/kg/injection, schedule: Q04DX003 (ip), vehicle: saline); 118 % of control (dose: 50.0 mg/kg/injection, schedule: Q01DX009 (ip), vehicle: Klucel (hydroxypropylcellulose) (HPC)); 116 % of control (dose: 66.0 mg/kg/injection, schedule: Q04DX003 (ip), vehicle: saline); 112 % of control (dose: 100.0 mg/kg/injection, schedule: Q04DX003 (ip), vehicle: saline); 100 % of control (dose: 132.0 mg/kg/injection, schedule: Q04DX003 (ip), vehicle: saline with Tween-80). In addition, the T/C is 95 % of control under setting [8] and 100 % of control (dose: 300.0 mg/kg/injection, schedule: Q04DX003 (ip), vehicle: Klucel (hydroxypropylcellulose) (HPC)).

As for `c1ccc2c(c1)cc1c3nncn3ncn21`, the T/C runs as follows: under setting [2], 90 % of control; under setting [11], 114 % of control.

`OC(CN1CCCCC1)c1cc(-c2ccccc2)no1` (stereo unspecified): the T/C runs as follows: (dose: 25.0 mg/kg/injection, schedule: Q01DX009 (ip), vehicle: saline) 100 % of control; under setting [2], 100 % of control; (dose: 50.0 mg/kg/injection, schedule: Q01DX009 (ip), vehicle: saline) 105 % of control; under setting [11], 100 % of control; under setting [12], 107 % of control; under setting [13], 105 % of control. Besides, the T/C (dose: 200.0 mg/kg/injection, schedule: Q01DX009 (ip), vehicle: saline) was 88 % of control.

`CNNCc1ccc(C(=O)NC(C)C)cc1`: the T/C was 100 % of control (dose: 37.5 mg/kg/injection, schedule: Q01DX010 (ip), vehicle: saline); 112 % of control and 116 % of control under setting [12]; 106 % of control (dose: 120.0 mg/kg/injection, schedule: Q01DX009 (ip), vehicle: saline); 123 % of control (dose: 125.0 mg/kg/injection, schedule: Q01DX009 (ip), vehicle: saline); 180 % of control (dose: 225.0 mg/kg/injection, schedule: Q01DX009 (ip), vehicle: saline); 161 % of control (dose: 250.0 mg/kg/injection, schedule: Q01DX009 (ip), vehicle: saline). In addition, the T/C (dose: 400.0 mg/kg/injection, schedule: Q01DX001 (ip), vehicle: saline) is 109 % of control.

Turning to `NC(=O)c1ccccc1NC(=O)c1ccccc1C(=O)O`, the T/C is, setting by setting: under setting [2], 99 % of control; under setting [11], 151 % of control; under setting [13], 153 % of control.

Regarding `CCCCN(CCCC)CC(O)c1ccnc2cc3c(cc12)OCO3` (stereo unspecified), the T/C by setting is: (dose: 25.0 mg/kg/injection, schedule: Q01DX001 (ip), vehicle: Klucel (hydroxypropylcellulose) (HPC)) 104 % of control; (dose: 50.0 mg/kg/injection, schedule: Q01DX001 (ip), vehicle: Klucel (hydroxypropylcellulose) (HPC)) 104 % of control; (dose: 100.0 mg/kg/injection, schedule: Q01DX001 (ip), vehicle: Klucel (hydroxypropylcellulose) (HPC)) 100 % of control; under setting [3], 100 % of control.

Take `CCOC(=O)C1=C(C)NC(C)=C(C(=O)OCC)C1c1ccccc1`: the T/C by setting is: under setting [2], 95 % of control; under setting [13], 95 % of control.

Consider `Cc1ccc(OC/C=C/CSc2ccc(C)cc2)cc1`, for which the T/C runs as follows: (dose: 100.0 mg/kg/injection, schedule: Q04DX003 (ip), vehicle: Klucel (hydroxypropylcellulose) (HPC)) 108 % of control; (dose: 200.0 mg/kg/injection, schedule: Q04DX003 (ip), vehicle: Klucel (hydroxypropylcellulose) (HPC)) 108 % of control; (dose: 400.0 mg/kg/injection, schedule: Q04DX003 (ip), vehicle: Klucel (hydroxypropylcellulose) (HPC)) 108 % of control.
